Results as given in the supplement of paper PMC10307832.

Tests used:
Assay in all cases: relative viability (nuclei count vs DMSO), 5 days (fraction); higher = more cells survive
IMD-0354 + Trametinib = compound: O=C(Nc1cc(C(F)(F)F)cc(C(F)(F)F)c1)c1cc(Cl)ccc1O [IMD-0354] + CC(=O)Nc1cccc(-n2c(=O)n(C3CC3)c(=O)c3c(Nc4ccc(I)cc4F)n(C)c(=O)c(C)c32)c1 [Trametinib] (partner 0.02 µM)
In short: (§1)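 One day after seeding in 1536-well plates, lung cancer cell lines were dosed by pin tool. Dosing was either single-drug or a fixed anchor-drug dose plus five library-drug doses (not always all listed) in √10 steps. After 5 days, nuclei were stained in one fix-and-stain step and counted on 4× images, and relative viability is the nuclei count of treated wells over that of vehicle wells, given as the median of duplicate plates.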

IMD-0354 + AZD7762 = compound: O=C(Nc1cc(C(F)(F)F)cc(C(F)(F)F)c1)c1cc(Cl)ccc1O [IMD-0354] + NC(=O)Nc1cc(-c2cccc(F)c2)sc1C(=O)N[C@H]1CCCNC1 [AZD7762] (partner 0.2 µM)
In short: as §1

CX-5461 + Decitabine = compound: Cc1cnc(CNC(=O)c2c(=O)c3ccc(N4CCCN(C)CC4)nc3n3c2sc2ccccc23)cn1 [CX-5461] + Nc1ncn([C@H]2C[C@H](O)[C@@H](CO)O2)c(=O)n1 [Decitabine] (partner 2 µM)
In short: as §1

CX-5461 + Pictilisib = compound: Cc1cnc(CNC(=O)c2c(=O)c3ccc(N4CCCN(C)CC4)nc3n3c2sc2ccccc23)cn1 [CX-5461] + CS(=O)(=O)N1CCN(Cc2cc3nc(-c4cccc5[nH]ncc45)nc(N4CCOCC4)c3s2)CC1 [Pictilisib] (partner 1 µM)
In short: as §1

Cell Line	relative viability (IMD-0354 + Trametinib; first compound 0.04 µM)	relative viability (IMD-0354 + Trametinib; first compound 0.1265 µM)	relative viability (IMD-0354 + Trametinib; first compound 0.4 µM)	relative viability (IMD-0354 + Trametinib; first compound 1.265 µM)	relative viability (IMD-0354 + Trametinib; first compound 4 µM)	relative viability (IMD-0354 + AZD7762; first compound 0.04 µM)	relative viability (IMD-0354 + AZD7762; first compound 0.1265 µM)	relative viability (IMD-0354 + AZD7762; first compound 0.4 µM)	relative viability (IMD-0354 + AZD7762; first compound 1.265 µM)	relative viability (IMD-0354 + AZD7762; first compound 4 µM)	relative viability (CX-5461 + Decitabine; first compound 0.01 µM)	relative viability (CX-5461 + Decitabine; first compound 0.03162 µM)	relative viability (CX-5461 + Decitabine; first compound 0.1 µM)	relative viability (CX-5461 + Decitabine; first compound 0.3162 µM)	relative viability (CX-5461 + Decitabine; first compound 1 µM)	relative viability (CX-5461 + Pictilisib; first compound 0.01 µM)	relative viability (CX-5461 + Pictilisib; first compound 0.03162 µM)	relative viability (CX-5461 + Pictilisib; first compound 0.1 µM)	relative viability (CX-5461 + Pictilisib; first compound 0.3162 µM)	relative viability (CX-5461 + Pictilisib; first compound 1 µM)
HCC-366	0.479	0.404	0.251	0.0603	0.0454	0.277	0.361	0.148	0.0408	0.048	0.37	0.349	0.293	0.347	0.327	0.133	0.142	0.142	0.0964	0.162
HCC-827	0.54	0.524	0.469	0.393	0.197	0.204	0.239	0.215	0.183	0.153	0.339	0.337	0.342	0.282	0.3	1.16	0.912	1	0.87	1.12
HOP-62	0.405	0.394	0.403	0.42	0.17	0.741	0.977	0.473	0.327	0.176	0.243	0.23	0.171	0.191	0.207	0.592	1.16	0.727	0.167	0.623
IA-LM																0.337	0.327	0.254	0.33	0.207
LC-2-ad	0.968	0.877	0.54	0.348	0.189	0.902	0.85	0.504	0.15	0.24	0.805	0.867	0.809	0.795	0.79	0.431	0.51	0.516	0.502	0.334
LCLC-97TM1	0.186	0.178	0.141	0.214	0.113	0.315	0.449	0.222	0.185	0.128	0.225	0.233	0.238	0.208	0.229	0.179	0.172	0.188		0.204
LCLC-103H	0.703	0.703	0.521	0.602	0.315	0.952	0.907	0.554	0.47	0.257	0.684	0.743	0.705	0.766	0.707	0.588	0.611	0.603	0.483	0.619
NCI-H520	0.687	0.725	0.522	0.143	0.149						0.529	0.52	0.483	0.465	0.362	0.218	0.299	0.285	0.305	0.298
NCI-H522	0.749	0.778	0.732	0.6	0.454	1.05	0.815	0.702	0.766	0.461	0.763	0.641	0.671		0.678					
NCI-H661	0.532	0.512	0.397	0.308	0.256						0.523	0.531	0.458	0.429	0.383	0.372	0.405	0.377	0.374	0.382
NCI-H1299																0.842		0.768	0.799	0.545
NCI-H1563																0.648	0.662	0.637	0.624	0.528
NCI-H1648	0.435	0.504	0.369	0.545	0.271	0.616	0.715	0.526	0.705	0.297	0.493	0.508	0.488	0.44	0.474					
NCI-H1650	0.568	0.558	0.479	0.131	0.254						0.395	0.441	0.344	0.378	0.207	0.577	0.593		0.206	0.226
NCI-H1703						0.124	0.0845	0.141	0.142	0.117						0.258	0.243	0.239	0.284	0.221
NCI-H2009	0.312	0.298	0.249	0.129	0.154						0.41	0.374	0.335	0.37	0.308	0.87	0.862	0.635	0.519	0.815
NCI-H2023	0.473	0.504	0.366	0.0709	0.115						0.223	0.178		0.178	0.0728	0.284	0.257		0.0857	0.102
NCI-H2228	0.472	0.454	0.43	0.171	0.232											0.646	0.425	0.255	0.432	0.153
NCI-H2342	0.763	0.743	0.731	0.77	0.565	0.539	0.509	0.469	0.31	0.385	0.686	0.699	0.734	0.691	0.586					
SK-LU-1	0.447	0.514	0.41	0.239	0.269						0.722	0.597	0.709	0.754	0.455	0.659	0.616	0.602	0.573	0.417
SK-MES-1	0.658	0.612	0.49	0.401	0.203						0.379	0.398	0.413	0.394	0.212	0.391	0.352	0.402	0.324	0.333
SW 900	0.711	0.639	0.599	0.154	0.212	0.649	0.693	0.441	0.24	0.254	0.631	0.448		0.457	0.387					
SW 1573	0.631	0.554	0.384	0.107	0.105						0.474	0.41	0.114	0.392	0.214	0.56	0.471	0.461	0.59	0.452
